Reference: patent US20050260126A1 (priority 2002, published 2005)
Counter-ions that a name gives are not always drawn.

Columns and labels:
[1] = test system: abnormal prion proteins in ScN2a cells with persistent infection of scrapie; experiment: cells; assay type: cell-based, mouse; settings: for IC50: Mus musculus, ScN2a, 96 h, read-out: Inhibitory effects on producing abnormal prion protein IC50; for Inhibitory effects on producing abnormal prion proteins (in words): ScN2a cells
[2] = test system: ScN2a cells; settings: for Concentration of inhibiting cell proliferation TC: mouse
[3] = test system: abnormal prion proteins (kuru plaques) in brain sections of GSS patients; parameters: species or system human; settings: GSS patient brain sections, 10-200 μM in 50% ethanol, 30 minutes
[4] = Slc:ICR, mouse, not told, iv
[5] = in vivo; settings: male, Crj:CD1, mouse, iv

Compound | IC50 [1] [nM] | Concentration of inhibiting cell proliferation TC [2] [µM] | Detection of spotted depositions of abnormal prion proteins (fluorescent signals) [3] | Permeability into the brain: content in Brain [4] | Permeability into the brain: content in Plasma [4] | MTD [5] [mg/kg] | Inhibitory effects on producing abnormal prion proteins (in words) [1] | TC and safety concentration margin (in words) [2]
CCN(CC)c1ccc(-c2ccc3ccccc3n2)cc1 [Compound N-313, 2-[(4-diethylamino)-phenyl]quinoline] | 500 | 50 | spotted fluorescent signals were observed | 4.6 % ID/g or ml | 1.1 % ID/g or ml |  |  | 
CN(C)c1ccc(/C=C/c2nc3cc(F)ccc3s2)cc1 [BF-162, 2-(4-dimethylamino) styryl-5-fluorobenzo-thiazole] | 10 | 100 | spotted fluorescent signals were observed |  |  |  |  | 
CN(C)c1ccc(/C=C/c2nc3ccccc3s2)cc1 [Compound N-276, 4-[2-(2-benzothiazolyl)-ethenyl]-N,N-dimethyl-benzenamine] | 5 | 50 | spotted fluorescent signals were observed |  |  |  |  | 
CN(C)c1ccc(/C=C/c2ccco2)cc1 [BF-142, 2-[2-(4-dimethylamino-phenyl)ethenyl]furan] | 10 | 100 | spotted fluorescent signals were observed |  |  |  |  | 
Nc1ccc(/C=C/c2nc3ccccc3[nH]2)cc1 [Compound N-398, 4-[2-(2-benzimidazolyl)-ethenyl]benzenamine sulfate] | 5 | 50 | spotted fluorescent signals were observed |  |  |  |  | 
CN(C)c1ccc(/C=C/c2nc3ccccc3o2)cc1 [Compound N-282, 2-(4-dimethylamino) styrylbenzoxazole] | 50 | 50 | spotted fluorescent signals were observed | 4.0 % ID/g or ml | 0.7 % ID/g or ml |  |  | 
CN(C)c1ccc(/C=C/c2nc3cc4c(cc3s2)OCO4)cc1 [Compound N-277, 4-[2-(5,6-methylene-dioxy-benzothiazol-2-yl)ethenyl]-N,N-di-methylbenzenamin] | 50 | 50 | detection of spotted depositions of abnormal prion proteins |  |  |  |  | 
CCN(CC)c1ccc(/C=C/c2nc3cc(F)ccc3[nH]2)cc1 [BF-166, 2-(4-diethylamino)-styryl-5-fluoro-benzimidazole] | 10 | 10 | spotted fluorescent signals were observed |  |  | < 10 |  | 
Cc1ccc2sc(/C=C/c3ccccc3C)nc2c1 [Compound N-440, 2-[2-(2-methylphenyl)-ethenyl]-5-methyl-benzothiazole] | 100 | 100 | spotted fluorescent signals were observed |  |  |  |  | 
CN(C)c1ccc(-c2ccc3ccccc3n2)cc1 [Compound N-310, 2-[(4-dimethylamino)-phenyl]quinoline] | 5 | 50 | spotted fluorescent signals were observed | 15 % ID/g or ml | 1.0 % ID/g or ml |  |  | 
CN(C)c1ccc2cc(-c3nc4cc(F)ccc4s3)ccc2c1 [BF-154, 5-fluoro-2-(6-dimethyl-aminonaphthalen-2-yl)benzothiazole] |  |  | spotted fluorescent signals were observed | 1.1 % ID/g or ml | 1.4 % ID/g or ml |  |  | 
Nc1ccc(C(=O)Nc2ccc(-c3nc4ccc(NC(=O)c5ccc(N)cc5)c(Cl)c4[nH]3)cc2)cc1 [Compound N-227, 4-[6-(N′-(4-amino-benzoyl)amino)-7-chlorobenzimidazol-2-yl]-N-(4-aminobenzoyl)aniline] | 10 | 10 | spotted fluorescent signals were observed |  |  |  |  | 
CN(C)c1ccc(/C=C/c2nc3cc(F)ccc3o2)cc1 [BF-133, 2-(4-dimethylamino) styryl-5-fluoro-benzoxazole] | 5 | 50 | spotted fluorescent signals were observed | 5.5 % ID/g or ml | 1.3 % ID/g or ml |  |  | 
Fc1ccc(/C=C/c2nc3ccccc3s2)cc1 [Compound N-453, 2-[2-(4-fluorophenyl)ethenyl]benzothiazole] | 1 | 100 |  | 5.0 % ID/g or ml | 1.4 % ID/g or ml | ≥ 10 | highly inhibitory effects | higher TCs, therefore higher safety concentration margins
Fc1ccc(/C=C/c2nc3ccccc3o2)cc1 [BF-208, 2-[2-(4-fluorophenyl)ethenyl]benzoxazole] | 0.8 | >10 |  | 11.0 % ID/g or ml | 0.53 % ID/g or ml | ≥ 10 |  | 
CN(C)c1ccc2cc(-c3nc4cc(F)ccc4o3)ccc2c1 [BF-151, 5-fluoro-2-(6-dimethyl-aminonaphthalen-2-yl)benzoxazole] | 10 | 100 | spotted fluorescent signals were observed |  |  |  |  | 
CN(C)c1ccc(/C=C/c2nc3ccc(F)cc3o2)cc1 [BF-148, 2-(4-dimethylamino) styryl-6-fluoro-benzoazole] | 1 | 10 | spotted fluorescent signals were observed |  |  |  | highly inhibitory effects | 
COc1cc(/C=C/c2nc3ccccc3s2)cc(OC)c1 [Compound N-408, 2-[2-(3,5-dimethoxy-phenyl)ethenyl]-benzothiazole] | 10 | 100 | spotted fluorescent signals were observed |  |  |  |  | 
CN(C)c1ncc(/C=C/c2nc3ccccc3o2)s1 [BF-197, 2-[2-(2-dimethyl-aminothiazol-5-yl)-ethenyl]benzoxazole] | 16 | 10 |  | 15 % ID/g or ml | 1.9 % ID/g or ml | ≥ 10 |  | 
Clc1ccccc1/C=C/c1nc2ccccc2s1 [Compound N-454, 2-[2-(2-chlorophenyl)ethenyl]benzothiazole] | 10 | 100 | spotted fluorescent signals were observed |  |  |  |  | 
CN(C)c1ncc(/C=C/c2ccc3ccccc3n2)s1 [BF-222, 2-[2-(2-dimethylthiazol-5-yl)ethenyl]quinoline] | 8 | >10 |  | 13.0 % ID/g or ml | 2.0 % ID/g or ml | ≥ 10 |  | 
CCN(CC)c1ccc(/C=C/c2cn3cc(F)ccc3n2)cc1 [BF-136, 2-[2-(4-diethylaminophenyl)ethenyl]-6-fluoroimidazo[1,2-a]-pyridine] | 1 | 10 | spotted fluorescent signals were observed |  |  |  | highly inhibitory effects | 
CNc1ccc(C=Cc2ccc3ccccc3n2)c(CF)c1 [BF-195, 2-[2-(2-fluoromethyl-4-methylaminophenyl)-ethenyl]quinoline] | 32 | 10 |  | 4.8 % ID/g or ml | 1.2 % ID/g or ml | ≥ 10 |  | 
